Holding throughout (test): Fluo-4 calcium assay, HEK293T + Galpha16gust44
Format in all cases: cell-based

The target of experiment [1] is T1, hTAS2R16 (ssr3-hTAS2R16) (Homo sapiens, UniProt Q9NYV7, F93Y).
T1 sequence (Q9NYV7 1-291 F93Y): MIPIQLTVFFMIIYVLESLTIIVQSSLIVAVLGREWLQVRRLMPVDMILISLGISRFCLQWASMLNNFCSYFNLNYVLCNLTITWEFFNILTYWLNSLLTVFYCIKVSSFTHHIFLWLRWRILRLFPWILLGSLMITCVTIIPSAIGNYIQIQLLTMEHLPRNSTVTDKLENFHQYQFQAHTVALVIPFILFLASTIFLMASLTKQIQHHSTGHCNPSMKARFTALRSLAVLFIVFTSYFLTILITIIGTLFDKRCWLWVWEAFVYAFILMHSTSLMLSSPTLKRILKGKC

For experiment [2], the target named is T2, hTAS2R16 (ssr3-hTAS2R16) (Homo sapiens, UniProt Q9NYV7, E86D).
T2 sequence (Q9NYV7 1-291 E86D): T1 sequence (Q9NYV7 1-291 F93Y) with E86D, Y93F

Experiment [3] addresses T3, hTAS2R16 (ssr3-hTAS2R16) (Homo sapiens, UniProt Q9NYV7, F93L).
T3 sequence (Q9NYV7 1-291 F93L): T1 sequence (Q9NYV7 1-291 F93Y) with Y93L

The target in experiment [4] is T4, hTAS2R16 (ssr3-hTAS2R16) (Homo sapiens, UniProt Q9NYV7, E86Q).
T4 sequence (Q9NYV7 1-291 E86Q): T1 sequence (Q9NYV7 1-291 F93Y) with E86Q, Y93F

Numbering of substitutions follows the chain as printed.

As to `OCc1ccccc1O[C@@H]1O[C@H](CO)[C@@H](O)[C@H](O)[C@H]1O` [salicin], the EC50 amounted to 10 mM on hTAS2R16 (ssr3-hTAS2R16) [1], 2.13 mM on hTAS2R16 (ssr3-hTAS2R16) [2], 4.15 mM at hTAS2R16 (ssr3-hTAS2R16) [3] and 1.25 mM on hTAS2R16 (ssr3-hTAS2R16) [4].

By EC50 is commonly meant the midpoint of the concentration-response curve.

(Values after paper PMC2934701 (The Journal of Biological Chemistry, 2010).)
